The record followed here is ChEMBL document CHEMBL1149283, “Design, synthesis and evaluation of a PLG tripeptidomimetic based on a pyridine scaffold” (J Med Chem, 2004).

Common to all, as to assay type: functional, cell-based
Common to all, as to settings: NIH3T3

In assay [1] the target is D(2) dopamine receptor (Homo sapiens) (UniProt P14416). Kind of assay: Activity at human dopamine D2 receptor in NIH/3T3 cells assessed as enhancement of NPA-stimulated beta-galactosidase activity at 50 nM after 5 days by R-SAT assay.
Sequence of D(2) dopamine receptor (Homo sapiens) (P14416 whole entry): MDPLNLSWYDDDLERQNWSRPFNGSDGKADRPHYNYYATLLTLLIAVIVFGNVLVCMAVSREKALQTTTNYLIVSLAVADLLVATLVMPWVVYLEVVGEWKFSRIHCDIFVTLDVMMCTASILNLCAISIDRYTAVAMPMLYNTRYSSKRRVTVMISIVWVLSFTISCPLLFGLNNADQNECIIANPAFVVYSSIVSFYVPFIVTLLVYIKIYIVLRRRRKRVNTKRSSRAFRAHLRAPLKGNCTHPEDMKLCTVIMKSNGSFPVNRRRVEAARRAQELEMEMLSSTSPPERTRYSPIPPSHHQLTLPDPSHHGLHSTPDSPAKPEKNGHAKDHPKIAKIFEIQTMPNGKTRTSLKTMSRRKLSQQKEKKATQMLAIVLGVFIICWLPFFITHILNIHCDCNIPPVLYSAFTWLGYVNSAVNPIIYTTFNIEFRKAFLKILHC
The target is the same in assay [2]. The assay is described as follows: Activity at human dopamine D2 receptor in NIH/3T3 cells assessed as enhancement of NPA-stimulated beta-galactosidase activity at 100 nM after 5 days by R-SAT assay.
Assay [3] has the same target. Kind of assay: Activity at human dopamine D2 receptor in NIH/3T3 cells assessed as enhancement of NPA-stimulated beta-galactosidase activity at 10 nM after 5 days by R-SAT assay.

Where a SMILES comes first, the peptide text is derived from it.

Take `CC(C)C[C@H](NC(=O)[C@@H]1CCCN1)C(=O)NCC(N)=O` (H-Pro-Leu-Gly-NH2): the results for the Activity in assay [1], in assay [2] and in assay [3] were 104%, 98% and 115%, respectively.

Take `CC(C)Cc1c(C(=O)[C@@H]2CCCN2)ccnc1OCC(N)=O`: the Activity in assay [1] was determined as 135%; in assay [2] it was 117%; in assay [3], 146%.
